Data: US11427563B2, “Aryl cyclopropyl-amino-isoquinolinyl amide compounds” (Aerie Pharmaceuticals, Inc., priority 2018, dated 2022)
pIC50, pKi: −log10 of the molar value.

Assays:
[1] = target: ROCK1 enzyme (Homo sapiens (Human), UniProt Q13464); assay: ROCK kinase inhibition assay (ROCK1); format: biochemical; conditions: Table 1
[2] = target: ROCK2 enzyme (Homo sapiens (Human), UniProt O75116); assay: ROCK kinase inhibition assay (ROCK2); format: biochemical; conditions: for IC50: Table 1
[3] = target: JAK3 enzyme (Homo sapiens (Human), UniProt P52333); assay: JAK kinase assay (JAK3); format: biochemical; conditions: for IC50: Table 1
Chain of JAK3 enzyme (P52333 whole entry, species assumed): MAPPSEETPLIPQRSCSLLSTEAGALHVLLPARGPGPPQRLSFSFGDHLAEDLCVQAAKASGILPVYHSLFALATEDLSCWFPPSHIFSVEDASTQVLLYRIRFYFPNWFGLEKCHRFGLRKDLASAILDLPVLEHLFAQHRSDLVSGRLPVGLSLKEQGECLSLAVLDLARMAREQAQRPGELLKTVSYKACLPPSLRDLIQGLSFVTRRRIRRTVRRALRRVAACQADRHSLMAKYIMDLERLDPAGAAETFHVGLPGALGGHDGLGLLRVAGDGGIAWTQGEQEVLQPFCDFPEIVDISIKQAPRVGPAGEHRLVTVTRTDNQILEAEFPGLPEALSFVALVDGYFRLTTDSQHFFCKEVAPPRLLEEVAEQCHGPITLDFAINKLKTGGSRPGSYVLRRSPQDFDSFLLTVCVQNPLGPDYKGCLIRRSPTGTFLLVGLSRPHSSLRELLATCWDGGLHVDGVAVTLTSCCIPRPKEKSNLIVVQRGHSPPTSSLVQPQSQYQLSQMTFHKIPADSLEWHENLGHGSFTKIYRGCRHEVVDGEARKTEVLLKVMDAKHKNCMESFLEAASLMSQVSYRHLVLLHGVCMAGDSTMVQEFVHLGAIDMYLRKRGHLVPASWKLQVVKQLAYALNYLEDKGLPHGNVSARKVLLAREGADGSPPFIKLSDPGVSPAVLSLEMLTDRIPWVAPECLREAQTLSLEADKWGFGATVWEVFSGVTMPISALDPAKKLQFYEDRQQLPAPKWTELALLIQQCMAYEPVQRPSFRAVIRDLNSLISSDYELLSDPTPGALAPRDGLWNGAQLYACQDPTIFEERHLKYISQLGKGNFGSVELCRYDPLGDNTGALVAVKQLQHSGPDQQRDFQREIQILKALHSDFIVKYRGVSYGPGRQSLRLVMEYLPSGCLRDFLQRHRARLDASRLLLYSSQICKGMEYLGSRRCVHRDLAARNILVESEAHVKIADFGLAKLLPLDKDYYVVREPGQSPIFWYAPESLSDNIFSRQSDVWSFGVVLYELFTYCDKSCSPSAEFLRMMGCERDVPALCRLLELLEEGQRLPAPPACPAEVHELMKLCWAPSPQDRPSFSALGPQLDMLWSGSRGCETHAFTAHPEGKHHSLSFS

[4] = target: IKKβ (Homo sapiens (Human), UniProt O14920); assay: IKKβ inhibition; format: biochemical; conditions: for IC50: Table 1
Chain of IKKβ (O14920 whole entry, species assumed): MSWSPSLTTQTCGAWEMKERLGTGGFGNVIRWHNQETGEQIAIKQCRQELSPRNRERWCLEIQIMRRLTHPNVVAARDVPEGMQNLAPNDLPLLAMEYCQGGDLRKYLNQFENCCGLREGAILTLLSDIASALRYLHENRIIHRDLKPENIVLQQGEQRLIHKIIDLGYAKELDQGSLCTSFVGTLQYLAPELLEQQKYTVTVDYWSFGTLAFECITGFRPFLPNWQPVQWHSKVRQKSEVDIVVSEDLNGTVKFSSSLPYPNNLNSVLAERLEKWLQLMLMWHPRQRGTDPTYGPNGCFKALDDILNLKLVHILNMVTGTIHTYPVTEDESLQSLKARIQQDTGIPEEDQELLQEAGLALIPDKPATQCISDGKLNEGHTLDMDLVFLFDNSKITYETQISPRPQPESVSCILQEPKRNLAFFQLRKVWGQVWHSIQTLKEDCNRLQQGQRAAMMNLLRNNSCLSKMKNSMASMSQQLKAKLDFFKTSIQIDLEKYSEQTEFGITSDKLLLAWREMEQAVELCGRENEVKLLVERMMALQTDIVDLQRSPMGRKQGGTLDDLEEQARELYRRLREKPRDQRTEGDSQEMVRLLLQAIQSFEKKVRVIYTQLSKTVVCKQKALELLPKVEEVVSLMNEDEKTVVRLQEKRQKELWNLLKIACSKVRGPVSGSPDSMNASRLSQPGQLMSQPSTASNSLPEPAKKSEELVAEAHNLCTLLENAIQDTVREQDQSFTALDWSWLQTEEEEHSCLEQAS

[5] = tested on: Porcine Trabecular Meshwork cells (PTM); assay: PTM-HTM assay (actin fiber length in PTM cells); format: cell-based; conditions: Sus scrofa; Table 2
Method: Porcine Trabecular Meshwork cells (PTM) were isolated from freshly obtained enucleated porcine eyes. Immortalized Human Trabecular Meshwork cells (TM-1) were obtained through a kind gift from Donna Peters in the Department of Ophthalmology and Visual Sciences at the University of Wisconsin. Cells were plated onto fibronectin coated glass-bottom 96-well plates and allowed to attach overnight. Media was removed and replaced with test compound in media with 1% fetal bovine serum and incubated for various times. After incubation, cells were formaldehyde fixed, triton solubilized, and stained. PTM cells were stained with Alexa Fluor®488 phalloidin (F-actin) and Hoechst 33342 (nuclei). TM-1 cells were stained with anti-paxillin followed by Alexa Fluor®488 goat-anti-mouse IgG (focal adhesions) and Hoechst 33342 (nuclei). All staining reagents were obtained through Invitrogen. Images were collected on an INCell 2200 imager with a 20× objective. The actin fiber length and total area of focal adhesions were analyzed using custom algorithms developed in the INCell Developer Toolbox, v1.9.3. Data collected were converted to percent of control (untreated cells). Curves were fit to data in GraphPad Prizm using sigmoidal dose-response and constraining top and bottom to 100% and 0%, respectively.

[6] = tested on: Stat5; assay: Stat5 assay; format: cell-based; conditions: Table 1
[7] = target: TYK2 (Homo sapiens (Human), UniProt P29597); assay: TYK2 inhibition; format: biochemical; conditions: Table 1
Chain of TYK2 (P29597 whole entry, species assumed): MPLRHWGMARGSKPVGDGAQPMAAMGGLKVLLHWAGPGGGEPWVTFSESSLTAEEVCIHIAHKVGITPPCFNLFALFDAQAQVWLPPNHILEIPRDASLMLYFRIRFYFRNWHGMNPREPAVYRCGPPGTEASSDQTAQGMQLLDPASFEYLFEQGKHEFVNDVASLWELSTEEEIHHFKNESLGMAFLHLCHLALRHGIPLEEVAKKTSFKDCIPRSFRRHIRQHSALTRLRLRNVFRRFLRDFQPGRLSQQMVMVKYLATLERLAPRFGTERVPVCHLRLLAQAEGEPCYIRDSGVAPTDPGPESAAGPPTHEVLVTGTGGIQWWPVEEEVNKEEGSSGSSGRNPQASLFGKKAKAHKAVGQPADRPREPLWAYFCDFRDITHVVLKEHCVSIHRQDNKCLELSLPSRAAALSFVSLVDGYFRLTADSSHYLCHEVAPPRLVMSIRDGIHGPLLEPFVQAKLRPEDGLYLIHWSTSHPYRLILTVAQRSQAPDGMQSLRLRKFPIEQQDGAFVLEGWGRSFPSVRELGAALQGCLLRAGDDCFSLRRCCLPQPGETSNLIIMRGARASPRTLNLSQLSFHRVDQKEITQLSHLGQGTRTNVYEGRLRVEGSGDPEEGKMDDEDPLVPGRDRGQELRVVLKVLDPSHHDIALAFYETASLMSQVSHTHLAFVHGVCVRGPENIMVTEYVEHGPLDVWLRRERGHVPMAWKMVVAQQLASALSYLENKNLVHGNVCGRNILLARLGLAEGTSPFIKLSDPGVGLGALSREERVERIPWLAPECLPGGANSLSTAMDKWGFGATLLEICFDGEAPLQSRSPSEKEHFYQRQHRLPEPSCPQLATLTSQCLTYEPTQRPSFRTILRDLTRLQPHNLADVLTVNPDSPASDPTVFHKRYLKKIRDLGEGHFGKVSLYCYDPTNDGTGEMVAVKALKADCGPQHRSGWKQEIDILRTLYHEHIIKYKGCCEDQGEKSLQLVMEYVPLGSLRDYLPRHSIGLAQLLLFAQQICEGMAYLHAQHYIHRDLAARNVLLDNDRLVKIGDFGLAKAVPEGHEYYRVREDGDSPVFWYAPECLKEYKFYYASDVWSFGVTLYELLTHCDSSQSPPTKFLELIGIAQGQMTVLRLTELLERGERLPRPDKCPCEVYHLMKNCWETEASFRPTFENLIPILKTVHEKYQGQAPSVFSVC

[8] = Table 2, Ki from IC50 by Cheng-Prusoff

Chain of ROCK2 enzyme (O75116 whole entry, species assumed): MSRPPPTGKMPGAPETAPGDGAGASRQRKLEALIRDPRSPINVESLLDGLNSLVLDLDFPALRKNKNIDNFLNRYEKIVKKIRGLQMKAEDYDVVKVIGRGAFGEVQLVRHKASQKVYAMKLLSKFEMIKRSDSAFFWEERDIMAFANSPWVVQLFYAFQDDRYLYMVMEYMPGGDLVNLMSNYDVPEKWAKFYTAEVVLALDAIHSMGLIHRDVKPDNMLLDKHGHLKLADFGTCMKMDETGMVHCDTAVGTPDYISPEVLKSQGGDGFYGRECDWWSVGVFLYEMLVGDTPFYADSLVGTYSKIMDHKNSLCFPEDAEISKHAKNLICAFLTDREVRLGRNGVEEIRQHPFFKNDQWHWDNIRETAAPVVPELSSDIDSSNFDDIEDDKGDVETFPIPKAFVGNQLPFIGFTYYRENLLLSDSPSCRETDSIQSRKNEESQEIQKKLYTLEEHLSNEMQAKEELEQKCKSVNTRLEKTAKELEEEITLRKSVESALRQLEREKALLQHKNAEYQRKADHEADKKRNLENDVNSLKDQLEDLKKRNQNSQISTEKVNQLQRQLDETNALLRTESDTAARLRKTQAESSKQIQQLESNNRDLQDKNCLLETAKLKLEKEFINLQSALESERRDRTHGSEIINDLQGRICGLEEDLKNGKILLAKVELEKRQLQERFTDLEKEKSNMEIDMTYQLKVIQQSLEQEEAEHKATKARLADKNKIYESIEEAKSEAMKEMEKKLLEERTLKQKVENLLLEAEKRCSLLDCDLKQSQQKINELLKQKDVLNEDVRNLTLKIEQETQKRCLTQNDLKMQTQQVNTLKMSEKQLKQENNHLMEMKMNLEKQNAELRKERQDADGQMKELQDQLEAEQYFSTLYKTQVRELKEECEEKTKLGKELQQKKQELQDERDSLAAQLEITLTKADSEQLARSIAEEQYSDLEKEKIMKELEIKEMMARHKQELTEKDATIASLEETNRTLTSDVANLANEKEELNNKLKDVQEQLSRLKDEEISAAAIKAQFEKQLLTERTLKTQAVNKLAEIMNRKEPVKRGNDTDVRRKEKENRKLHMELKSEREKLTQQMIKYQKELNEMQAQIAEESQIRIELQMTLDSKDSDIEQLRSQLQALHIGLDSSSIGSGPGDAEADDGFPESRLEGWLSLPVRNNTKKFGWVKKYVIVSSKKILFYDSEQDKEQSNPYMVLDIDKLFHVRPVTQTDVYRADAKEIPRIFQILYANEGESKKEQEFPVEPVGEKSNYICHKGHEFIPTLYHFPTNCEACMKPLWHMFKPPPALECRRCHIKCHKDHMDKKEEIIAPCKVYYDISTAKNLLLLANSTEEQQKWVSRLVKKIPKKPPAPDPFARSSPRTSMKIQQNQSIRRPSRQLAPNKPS

IC50 [1] [nM] | IC50 [2] [nM] | IC50 [3] [nM] | IC50 [4] [nM] | pIC50 [5] | pKi [2, 8] | pKi [3, 8] | pKi ([4]; Table 2) | IC50 [7] [nM] | Structure (SMILES) | IC50 [6] [nM]
20 | 12.3 | 3.4 | 5 |  |  |  |  |  | Cc1cncc2ccc(NC(=O)[C@@H]3C[C@H]3c3ccc(S(=O)(=O)Nc4nccs4)cc3)cc12 [Compound 32] | 
18 | 15 | 179 | 825 |  |  |  |  |  | Cc1cncc2ccc(NC(=O)[C@@H]3C[C@H]3c3ccc(S(=O)(=O)NC4CCCNC4)cc3)cc12 (stereo partly shown) [Compound 13] | 
 |  |  |  | 6.19 |  |  |  |  | O=C(Nc1cccnn1)c1ccc(C2C[C@H]2C(=O)Nc2ccc3cnccc3c2)cc1 (stereo partly shown) [Compound 175] | 
 |  |  |  | 7.92 | 9.00 | 6.68 | 5.92 |  | CN(C)Cc1ccc(NC(=O)c2cccc([C@@H]3C[C@H]3C(=O)Nc3ccc4cncc(Cl)c4c3)c2)nc1 [Compound 36] | 
121 | 93 | 3.9 | 7.3 |  |  |  |  |  | Cc1cncc2ccc(NC(=O)[C@@H]3CC3c3ccc(S(=O)(=O)Nc4ncc(F)cn4)cc3)cc12 (stereo partly shown) [Compound 8] | 
16 | 4.9 | 148 | 1130 |  |  |  |  |  | Cc1cncc2ccc(NC(=O)[C@@H]3C[C@H]3c3ccc(S(=O)(=O)Nc4ncc(C5CCNCC5)cn4)cc3)cc12 [Compound 1] | 
 |  |  |  |  |  |  |  | 34 | Cc1cncc2ccc(NC(=O)[C@@H]3C[C@H]3c3ccc(S(=O)(=O)Nc4cnccn4)cc3)cc12 [Compound 10] | 
30 | 20 | 2.4 | 6.9 |  |  |  |  |  | N#Cc1cncc2ccc(NC(=O)[C@@H]3CC3c3ccc(S(=O)(=O)Nc4ccccn4)cc3)cc12 (stereo partly shown) [Compound 20] | 
156 | 56 | 4.8 | 88 |  |  |  |  |  | O=C(Nc1ccc2cncc(Cl)c2c1)[C@@H]1C[C@H]1c1ccc(S(=O)(=O)Nc2ccc(F)cn2)cc1 [Compound 15] | 
 | 44 | 19 |  |  |  |  |  | 98 | Cc1cncc2ccc(NC(=O)[C@@H]3C[C@H]3c3ccc(S(=O)(=O)Nc4cccnc4)cc3)cc12 [Compound 27] | 
122 | 108 | 9 | 16 |  |  |  |  |  | O=C(Nc1ccc2cncc(C(F)(F)F)c2c1)[C@@H]1C[C@H]1c1ccc(S(=O)(=O)Nc2ccccn2)cc1 [Compound 14] | 
160 | 67 | 18 | 381 |  |  |  |  | 210 | O=C(Nc1ccc2cncc(Cl)c2c1)[C@@H]1CC1c1ccc(S(=O)(=O)Nc2cccnc2)cc1 (stereo partly shown) [Compound 28] | 57
43 | 13.8 | 350 | > 5000 |  |  |  |  |  | O=C(Nc1ccc2cnccc2c1F)[C@@H]1C[C@H]1c1ccc(S(=O)(=O)Nc2cccnc2)cc1 [Compound 29] | 
128 | 68 |  | 4.1 |  |  |  |  |  | O=C(Nc1ccc2cncc(Cl)c2c1)[C@@H]1C[C@H]1c1ccc(S(=O)(=O)Nc2ncccn2)cc1 [Compound 6] | 
74 | 25 | 2.9 | 70 |  |  |  |  | 12 | O=C(Nc1ccc2cncc(Cl)c2c1)[C@@H]1CC1c1ccc(S(=O)(=O)Nc2ccc(F)cn2)cc1 (mixture of isomers) [Compound 16b] | 
156 | 56 | 4.8 | 88 |  |  |  |  | 7 | O=C(Nc1ccc2cncc(Cl)c2c1)[C@@H]1CC1c1ccc(S(=O)(=O)Nc2ccc(F)cn2)cc1 (mixture of isomers) [Compound 16a] | 
 |  |  | 159 |  |  |  |  |  | Cc1cncc2ccc(NC(=O)[C@@H]3CC3c3ccc(S(=O)(=O)Nc4cccnc4)cc3)cc12 (stereo partly shown) [Compound 27] | 
1090 | 880 | 5.8 | 3.6 |  |  |  |  |  | CCc1cncc2ccc(NC(=O)[C@@H]3C[C@H]3c3ccc(S(=O)(=O)Nc4ncccn4)cc3)cc12 [Compound 7] | 

Structure (SMILES) | IC50 [1] [nM] | IC50 [2] [nM] | IC50 [3] [nM] | IC50 [4] [nM] | pIC50 [5] | pKi [2, 8] | pKi [3, 8] | pKi ([4]; Table 2) | IC50 [7] [nM] | IC50 [6] [nM]
CCc1cncc2ccc(NC(=O)[C@@H]3CC3c3ccc(S(=O)(=O)Nc4ccccn4)cc3)cc12 (stereo partly shown) [Compound 17] | 44 | 45 | 4.2 |  |  |  |  |  |  | 
Cc1cncc2ccc(NC(=O)[C@@H]3CC3c3ccc(S(=O)(=O)Nc4cnccn4)cc3)cc12 (stereo partly shown) [Compound 10] | 220 | 74 | 14 | 105 |  |  |  |  |  | > 1000
O=C(Nc1ccc2cnccc2c1)[C@@H]1CC1c1cc(F)ccc1S(=O)(=O)Nc1ccccn1 (stereo partly shown) [Compound 19] | 7400 |  | 6750 |  |  |  |  |  |  | 
Cc1cncc2ccc(NC(=O)[C@@H]3C[C@H]3c3ccc(S(=O)(=O)Nc4cncc(C5=CCNCC5)n4)cc3)cc12 [Compound 11] | 153 | 15 | 135 | 765 |  |  |  |  |  | 
O=C(Nc1ccc2cncc(C(F)(F)F)c2c1)[C@@H]1CC1c1ccc(S(=O)(=O)Nc2ncccn2)cc1 (stereo partly shown) [Compound 9] | 1570 | 1160 | 8.2 | 14 |  |  |  |  |  | 
Cc1cncc2ccc(NC(=O)[C@@H]3C[C@H]3c3ccc(S(=O)(=O)NC4CCNC4)cc3)cc12 (stereo partly shown) [Compound 12] | 21 | 21 | 175 | 759 |  |  |  |  |  | 
O=C(Nc1ccc2cnccc2c1)[C@@H]1CC1c1ccc(S(=O)(=O)Nc2ccccn2)c(F)c1 (stereo partly shown) [Compound 18] | 6.4 | 4 | 19.5 | 17.5 |  |  |  |  |  | 
